SMILES strings stand for the structures. Entries after “also recorded” stand apart in the source; their conditions may differ.

The subject of data set [1] is endometrium. Conditions: cited from earlier work.
Data set [2] deals with postmenopausal women with vaginal atrophy. The note with it: cited from earlier work.
The conditions of data set [3]: one week daily intravaginal, mass spectrometry (Labrie, Cusan et al. 2008); cited from earlier work.
Data set [4] is described as follows: Bioavailability and metabolism of oral and percutaneous DHEA: serum steroids on 1st and 14th day. The text has this:
Thirty-six healthy 60-70-year-old postmenopausal women participated in the study after IRB approval and having given their written informed consent. Body weight was within ±20% of normal body weight according to Metropolitan Life Tables.
This study was a randomized open-label trial of 12 subjects per arm. After written informed consent was obtained and women were found eligible, each subject was randomized to receive DHEA by cream, gel or orally. Daily, before breakfast, for 14 days, subjects received, at the research clinic, either 4 g of 10% DHEA gel or 4 g of 10% DHEA cream applied on a total 30 cm×30 cm area of the thighs or two 50 mg capsules of DHEA orally before breakfast.
Blood sampling was performed at 08:00-09:00 h at screening and before application of DHEA, on the first day of dosing, as well as on days 2, 4, 7, 10 and 14. On the 1st and 14th days, blood samples were obtained at 0.5 h, 1 h, 1.5 h, 2 h, 3 h, 4 h, 5 h, 6 h, 7 h, 8 h, 12 h and 24 h following DHEA administration.
DHEA, DHEA-S, androst-5-ene-3β,17β-diol (5-diol), testosterone, androstenedione (4-dione), 17β-estradiol (E2), estrone (E1), estrone sulfate (E1-S), androsterone glucuronide (ADT-G), and androstane-3*,17β-diol glucuronide (3α-diol-G) were measured by gas chromatography/mass spectrometry (DHEA, 5-diol, 4-dione, testosterone, E1 and E2) using electron impact or chemical ionization and by liquid chromatography/tandem mass spectrometry using turboionspray (DHEA-S, E1-S, ADT-G and 3α-diol-G) as described (Labrie, Bélanger et al., 2006; Labrie, Bélanger, et al, 2007b and Swanson et al. 2007).
On days 1 and 14, the area under the curve of the serum concentration of each steroid was measured between 0 h and 24 h (AUC0-24 h). The areas under the curves were calculated by a linear trapezoidal method (model-independent). The relative bioavailability of the DHEA gel, DHEA cream and DHEA capsules was based on the mean difference in the log-transformed AUC values. All calculations were performed with the SAS software (SAS Institute, Cary, N.C., USA).

Data set [5] can be described thus: Serum levels of DHEA and eleven metabolites after daily intravaginal DHEA suppositories (clinical trial ERC-213). Conditions: 0.5% DHEA intravaginal. The data set is classed as in vivo, 40-75 year-old postmenopausal women. The text has this: The primary objective of that study was the evaluation of the systemic bioavailability of DHEA and its metabolites following daily intravaginal application of suppositories at four different DHEA concentrations. This study was a randomized, placebo-controlled and double-blind trial of 10-subjects per arm.

For data set [6] the following is noted: cited from earlier work.
Data set [7] deals with endometrium. Briefly: Endometrial biopsy histology (ERC-210). The data set is classed as in vivo, postmenopausal women. The note with it: 3 months of intravaginal administration. Here is the method:
Endometrial biopsy was performed at screening and at month 3 at end of study. All biopsies were examined by the same pathologist at the central laboratory (Dr. Robert Dubé, Department of cytology-pathology, Enfant-Jésus Hospital, Quebec City, Canada).

Data set [8] relates to postmenopausal women with vaginal atrophy. Briefly: Vaginal examination: secretions, color, epithelial integrity, surface thickness (ERC-210). Type of data set: in vivo. Conditions: 2, 4, 8 and 12 weeks. From the text:
At the same time intervals of 2, 4, 8 and 12 weeks, the gynecologist or physician in charge of the study at each site performed a vaginal exam to evaluate the degree of severity (none, mild, moderate or severe, analyzed using values of 0, 1, 2 and 3, respectively) for the main signs of vaginal atrophy, namely vaginal secretions, vaginal color, vaginal epithelial integrity and vaginal epithelial surface thickness. […] In fact, the beneficial effects observed by the gynecologist and or physician are almost superimposable to those self-reported by women on their most bothersome symptoms.
Vaginal examination was performed at screening and then at day 1 and at 2, 4, 8 and 12 weeks. Vaginal secretions, vaginal color, vaginal epithelial integrity and vaginal epithelial surface thickness were evaluated according to the following degrees of severity: none, mild, moderate or severe.

The mark [9] stands for this setting: 24 h after 14th daily administration, oral or percutaneous.
Where [10] appears, read: daily oral 50 mg (Arlt et al. 2001).

As for `C[C@]12CC[C@H]3[C@@H](CCC4=CC(=O)CC[C@@]43C)[C@@H]1CC[C@@H]2O` [testosterone], in the data set on endometrium [1] (with estradiol valerate 2 mg/day (Zang 2007)), the “Proliferation with simultaneous administration of testosterone” value was 28%.

In the case of `C[C@]12CC[C@@H]3c4ccc(O)cc4CC[C@H]3[C@@H]1CC[C@@H]2O` [E2, 17β-estradiol], in data set [2] (25 μg intravaginally, 12 months (Simunic 2003)), the “Cases with persisting dyspareunia” value was 12.4%. Further, in data set [2] (12 weeks intravaginal 25 μg (Bachmann 2008)), the “Patients having a pH less than 5.0” value was 51%. Also, in data set [3], the “Increase in serum E2” value was 5 fold.

With `C[C@]12CC[C@H](O)CC1=CC[C@@H]1[C@@H]2CC[C@]2(C)C(=O)CC[C@@H]12` [DHEA, dehydroepiandrosterone], the “Change in serum E1, E2 or testosterone AUC0-24 h” value in data set [4] (14th day compared to predosing) was “no significant change”. Moreover, the “Change in serum DHEA-S” value in data set [4] (14th day, application of DHEA on the skin) was “No significant change”. Moreover, in data set [4] (setting [9]), the “Change in serum E1-S” value is recorded as “did not change” and the “Change in serum levels of E1 or E2” value is listed as “no significant change”. Further, the “Change of serum ADT-G or 3α-diol-G” value in data set [4] (day 1, up to 24 h, 4 g of 10% DHEA on the skin) is “no significant change”. In addition, the “Change in serum ADT-G” value in data set [4] (day 14, application of DHEA on the skin) was “No significant change”. The “Change in serum 3α-diol-G” value in data set [4] (day 14, percutaneous administration) is “No significant change”. Besides, in data set [4] (female, human, serum, po), the “Higher level of transformation of DHEA into ADT-G and 3α-diol-G, oral vs percutaneous” value is recorded as “approximately 10 fold”; the “Transformation of DHEA into 4-dione, oral compared to percutaneous” value is on record as 2.70-3.76 times. For the same compound, the “Change in serum E1-S” value in data set [4] (first 24 h) was “did not change significantly”. Besides, the “Effect on serum levels of E1 or E2” value in data set [4] (first 24 h, oral or percutaneous route) was “no statistically significant effect”. Further, the “Serum levels of active estrogens (E1, E2, E1S) and androgens (testo, DHT)” value in data set [5] is recorded as “not significantly affected; also recorded: does not increase”. Moreover, in data set [6] (23 h after last administration, 25 mg oral 6 months), the “Serum DHEA and testosterone levels” value is “not changed significantly”. Further, in data set [6] (setting [10]), the “Effect on serum testosterone or DHT” value is “no significant effect”; the “Increase of DHEA and ADT-G” value is 80-90%. The “Androgen metabolites as % of levels found in premenopausal women” value in data set [6] (daily oral 100 mg (Labrie, Bélanger et al. 2007)) was 74%. Further, in the data set with endometrium [7], the “Effect on endometrial histology” value was “no effect on endometrial histology”. For the same compound, the “Signs of vaginal atrophy at vaginal exam” value in data set [8] is reported as “highly statistically significant improvement of all four signs of vaginal atrophy”.

`CCCCCCCCCCC(=O)O[C@H]1CC[C@H]2[C@@H]3CCC4=CC(=O)CC[C@]4(C)[C@H]3CC[C@]12C` [testosterone undecanoate]: the “Effect on the endometrium” value with endometrium [1] (40 mg every second day (Zang 2007)) is given as “no effect on the endometrium”.

`CCCCC(=O)O[C@H]1CC[C@H]2[C@@H]3CCc4cc(O)ccc4[C@H]3CC[C@]12C` [estradiol valerate]: the “Increase of Ki labeling” value in the data set on endometrium [1] (2 mg/day, 3 months (Zang 2007)) is 50%.

(Values after patent publication US10881650B2, “Pharmaceutical compositions” (priority 2007, dated 2021).)
